For one data set, the system named is HIV-IIIb. Kind of data set: Test A: Antiviral assay in MT4 cells. It is filed as cell-based, HIV-1. The settings on record: Human immunodeficiency virus 1, IIIB, MT4, 120 h, read-out: % inhibition at 2 μM, percent inhibition of virus-induced cell killing, from dose response curve at 2 uM drug; MT-4 cells infected with HIV-IIIb, 5 days, CellTiter-Glo. Background: Cellular ATP, detected with luciferase, serves as a proxy for viable cell number.

A further data set is described as follows: in vitro. The settings on record: human, uninfected MT-4 cells, CC50 (nM), same protocol as Test A, CellTiter-Glo. On the procedure:
For the antiviral assay, 40 μL of 1× test concentration of 3-fold serially diluted compound in culture medium with 10% FBS was added to each well of a 384-well plate (10 concentrations) in quadruplicate. MT-4 cells were next mixed with HIV-IIIb at an m.o.i of 0.003 for 1 hour, after which time 35 μL of virus/cell mixture (2000 cells) was immediately added to each well containing 40 μL of diluted compound. The plates were then incubated at 37° C. for 5 days. After 5 days of incubation, 25 μl of 2× concentrated CellTiter-Glo™ Reagent (catalog #G7571, Promega Biosciences, Inc., Madison, Wis.) was added to each well containing MT-4 cells. Cell lysis was carried out by incubating at room temperature for 10 min and then chemiluminescence was read.
Test B: Cytotoxicity Assay
Compound cytotoxicity and the corresponding CC50 values was determined using the same protocol as described in the antiviral assay (Test A) except that uninfected cells were used.

Turning to `N#Cc1cccc(-c2cccnc2[C@H](Cc2cc(F)cc(F)c2)NC(=O)Cc2c[nH]c3ccc(O)cc23)c1` [Example 38E, (S)—N-(1-(3-(3-cyanophenyl)pyridin-2-yl)-2-(3,5-difluorophenyl)ethyl)-2-(5-hydroxy-1H-indol-3-yl)acetamide], the inhibition (commonly the drop in the measured response relative to a control, in per cent) at 2 µM in the data set on HIV-IIIb was found to be 86%. It took 28600 nM to reach half-maximal cytotoxicity in the data set “in vitro” (CC50 at 5 days).
For `NC(=O)c1cc(-c2cccnc2[C@H](Cc2cc(F)cc(F)c2)NC(=O)Cc2c[nH]c3ccc(O)cc23)ccc1Cl` [Example 40, (S)-2-chloro-5-(2-(2-(3,5-difluorophenyl)-1-(2-(5-hydroxy-1H-indol-3-yl)acetamido)ethyl)pyridin-3-yl)benzamide] the same measures were 99% and more than 48900 nM.
The like results for `NC(=O)c1cc(-c2cccnc2[C@H](Cc2cc(F)cc(F)c2)NC(=O)Cc2c[nH]c3ccc(O)cc23)ccc1F` [Example 41, (S)-5-(2-(2-(3,5-difluorophenyl)-1-(2-(5-hydroxy-1H-indol-3-yl)acetamido)ethyl)pyridin-3-yl)-2-fluorobenzamide] were, in that order, 97% and more than 53000 nM.
`NC(=O)c1ccc(-c2cccnc2[C@H](Cc2cc(F)cc(F)c2)NC(=O)Cc2c[nH]c3ccc(O)cc23)cc1` [Example 42, (S)-4-(2-(2-(3,5-difluorophenyl)-1-(2-(5-hydroxy-1H-indol-3-yl)acetamido)ethyl)pyridin-3-yl)benzamide]: the inhibition at 2 µM in the data set on HIV-IIIb is 96%. In “in vitro”, the CC50 (commonly the concentration giving 50% cytotoxicity) at 5 days is more than 53000 nM.
For `NS(=O)(=O)c1ccc(-c2cccnc2[C@H](Cc2cc(F)cc(F)c2)NC(=O)Cc2c[nH]c3ccc(O)cc23)cc1` [Example 43, (S)—N-(2-(3,5-difluorophenyl)-1-(3-(4-sulfamoylphenyl)pyridin-2-yl)ethyl)-2-(5-hydroxy-1H-indol-3-yl)acetamide] the same measures were 28% and more than 53000 nM.
The like results for `NS(=O)(=O)c1cccc(-c2cccnc2[C@H](Cc2cc(F)cc(F)c2)NC(=O)Cc2c[nH]c3ccc(O)cc23)c1` [Example 44, (S)—N-(2-(3,5-difluorophenyl)-1-(3-(3-sulfamoylphenyl)pyridin-2-yl)ethyl)-2-(5-hydroxy-1H-indol-3-yl)acetamide] were, in that order, 96% and more than 52500 nM.
For `CNC(=O)c1ccc(-c2cccnc2[C@H](Cc2cc(F)cc(F)c2)NC(=O)Cc2c[nH]c3ccc(O)cc23)cc1` [Example 45, (S)-4-(2-(2-(3,5-difluorophenyl)-1-(2-(5-hydroxy-1H-indol-3-yl)acetamido)ethyl)pyridin-3-yl)-N-methylbenzamide] the same measures were 32% and more than 53000 nM.
In the case of `CNC(=O)c1cccc(-c2cccnc2[C@H](Cc2cc(F)cc(F)c2)NC(=O)Cc2c[nH]c3ccc(O)cc23)c1` [Example 46, (S)-3-(2-(2-(3,5-difluorophenyl)-1-(2-(5-hydroxy-1H-indol-3-yl)acetamido)ethyl)pyridin-3-yl)-N-methylbenzamide], the inhibition at 2 µM with HIV-IIIb stood at 87%. In addition, the CC50 at 5 days in the data set “in vitro” was more than 53000 nM.
Regarding `CN(C)C(=O)c1ccc(-c2cccnc2[C@H](Cc2cc(F)cc(F)c2)NC(=O)Cc2c[nH]c3ccc(O)cc23)cc1` [Example 47, (S)-4-(2-(2-(3,5-difluorophenyl)-1-(2-(5-hydroxy-1H-indol-3-yl)acetamido)ethyl)pyridin-3-yl)-N,N-dimethylbenzamide], the inhibition at 2 µM in the data set on HIV-IIIb amounted to 59%. Moreover, in “in vitro”, the CC50 at 5 days is more than 53000 nM.
The like results for `CN(C)C(=O)c1cccc(-c2cccnc2[C@H](Cc2cc(F)cc(F)c2)NC(=O)Cc2c[nH]c3ccc(O)cc23)c1` [Example 48, (S)-3-(2-(2-(3,5-difluorophenyl)-1-(2-(5-hydroxy-1H-indol-3-yl)acetamido)ethyl)pyridin-3-yl)-N,N-dimethylbenzamide] were, in that order, 74% and more than 53000 nM.
With `O=C(Cc1c[nH]c2ccc(O)cc12)N[C@@H](Cc1cc(F)cc(F)c1)c1ncccc1-c1cccc(-c2nnn[nH]2)c1` [Example 49], the inhibition at 2 µM in the data set with HIV-IIIb came out at 0%. Further, in “in vitro”, the midpoint of cytotoxicity, the CC50 at 5 days, lay at 562 nM.

For the origin of these results see patent US9540343B2 (Gilead Sciences, Inc., priority 2011, dated 2017).
